Source: patent US20250388582A1, “NOVEL BICYCLIC HETEROARYL COMPOUND AND USE THEREOF” (ILDONG PHARMACEUTICAL CO., LTD., priority 2022, published 2025)

How the values were obtained:
human GST-PIKFYVE = target: T1, human GST-PIKFYVE (Homo sapiens, UniProt Q9Y2I7); assay: ADP-Glo kinase assay, enzyme inhibition activity against human PIKFYVE (Carna biosciences); format: biochemical; conditions: inhibitory activity at final compound concentration 10 nM; 1 hour at room temperature
T1 construct: GST; purchased Carna biosciences 11-118
Method in brief: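 Human GST-PIKFYVE (glutathione Sepharose-purified) was reacted with substrate and ATP for 1 h at room temperature in 50 mM MOPS, 1 mM DTT, pH 7.2, with compound at 10 nM final. ADP formed was read by ADP-Glo luminescence; inhibition was calculated against no-enzyme (100%) and no-compound (0%) controls.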

PIKFYVE = target: T2, PIKFYVE (Homo sapiens, UniProt Q9Y2I7); assay: NanoBRET TE Intracellular Kinase Assay, interaction of PIKFYVE and compounds in HEK293 cells; format: cell-based; conditions: IC50 class from BRET; HEK293 cells expressing PIKFYVE-NanoLuc; 2 hours incubation
T2 construct: host or cells: HEK293 (ATCC, CRL-1573)
Method in brief: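 HEK293 cells transiently expressing a PIKFYVE-NanoLuc fusion were incubated 2 h at 37 °C, 5% CO2 with compound plus NanoBRET tracer. BRET was read after adding Nano-Glo substrate, giving intracellular target engagement by tracer displacement.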

[1] = Microsomal metabolic stability assay; format: in vitro ADME, human or CD1 male mouse; conditions: Clint class; 1 μM compound, 0.5 mg/ml microsomes, NADPH, UDPGA, Alamethicin; species not given
Description: The microsomal metabolic stability assay was performed using pooled human or CD1 male mouse interspecies microsomes. Supplemental cofactors (NADPH, UDPGA) and microsomal membrane pore-forming factor (Alamethicin) were added to promote cytochrome P450 (CYP), UGT reactivity to the target compound. Test compounds (1 μM incubation concentration) and microsomes (0.5 mg/ml incubation concentration) were diluted in 0.1 M phosphate buffer, pH 7.4, and incubated (37° C.). The reaction was initiated by the addition of NADPH (1 mM), UDPGA (1 mM) and Alamethicin (25 μg/mg). The incubation times were 0, 5, 15, 30, and 45 minutes, and at each time point, the reaction was terminated by adding acetonitrile containing internal standard (IS)(1:3 ratio). The plate was then sealed, centrifuged (3000 rpm, 20 min, 4° C.), and the supernatant was analyzed by LC-MS/MS. Hepatic extraction ratio values were calculated from the measured in vitro clearance and Intrinsic clearance (Clint) values were calculated from the assay results, and the respective Clint values were categorized into Low, Medium, and High categories based on the reference document (ref. Prostaglandins & other lipid mediators 136 (2018): 90-95).

T2 sequence (Q9Y2I7 whole entry): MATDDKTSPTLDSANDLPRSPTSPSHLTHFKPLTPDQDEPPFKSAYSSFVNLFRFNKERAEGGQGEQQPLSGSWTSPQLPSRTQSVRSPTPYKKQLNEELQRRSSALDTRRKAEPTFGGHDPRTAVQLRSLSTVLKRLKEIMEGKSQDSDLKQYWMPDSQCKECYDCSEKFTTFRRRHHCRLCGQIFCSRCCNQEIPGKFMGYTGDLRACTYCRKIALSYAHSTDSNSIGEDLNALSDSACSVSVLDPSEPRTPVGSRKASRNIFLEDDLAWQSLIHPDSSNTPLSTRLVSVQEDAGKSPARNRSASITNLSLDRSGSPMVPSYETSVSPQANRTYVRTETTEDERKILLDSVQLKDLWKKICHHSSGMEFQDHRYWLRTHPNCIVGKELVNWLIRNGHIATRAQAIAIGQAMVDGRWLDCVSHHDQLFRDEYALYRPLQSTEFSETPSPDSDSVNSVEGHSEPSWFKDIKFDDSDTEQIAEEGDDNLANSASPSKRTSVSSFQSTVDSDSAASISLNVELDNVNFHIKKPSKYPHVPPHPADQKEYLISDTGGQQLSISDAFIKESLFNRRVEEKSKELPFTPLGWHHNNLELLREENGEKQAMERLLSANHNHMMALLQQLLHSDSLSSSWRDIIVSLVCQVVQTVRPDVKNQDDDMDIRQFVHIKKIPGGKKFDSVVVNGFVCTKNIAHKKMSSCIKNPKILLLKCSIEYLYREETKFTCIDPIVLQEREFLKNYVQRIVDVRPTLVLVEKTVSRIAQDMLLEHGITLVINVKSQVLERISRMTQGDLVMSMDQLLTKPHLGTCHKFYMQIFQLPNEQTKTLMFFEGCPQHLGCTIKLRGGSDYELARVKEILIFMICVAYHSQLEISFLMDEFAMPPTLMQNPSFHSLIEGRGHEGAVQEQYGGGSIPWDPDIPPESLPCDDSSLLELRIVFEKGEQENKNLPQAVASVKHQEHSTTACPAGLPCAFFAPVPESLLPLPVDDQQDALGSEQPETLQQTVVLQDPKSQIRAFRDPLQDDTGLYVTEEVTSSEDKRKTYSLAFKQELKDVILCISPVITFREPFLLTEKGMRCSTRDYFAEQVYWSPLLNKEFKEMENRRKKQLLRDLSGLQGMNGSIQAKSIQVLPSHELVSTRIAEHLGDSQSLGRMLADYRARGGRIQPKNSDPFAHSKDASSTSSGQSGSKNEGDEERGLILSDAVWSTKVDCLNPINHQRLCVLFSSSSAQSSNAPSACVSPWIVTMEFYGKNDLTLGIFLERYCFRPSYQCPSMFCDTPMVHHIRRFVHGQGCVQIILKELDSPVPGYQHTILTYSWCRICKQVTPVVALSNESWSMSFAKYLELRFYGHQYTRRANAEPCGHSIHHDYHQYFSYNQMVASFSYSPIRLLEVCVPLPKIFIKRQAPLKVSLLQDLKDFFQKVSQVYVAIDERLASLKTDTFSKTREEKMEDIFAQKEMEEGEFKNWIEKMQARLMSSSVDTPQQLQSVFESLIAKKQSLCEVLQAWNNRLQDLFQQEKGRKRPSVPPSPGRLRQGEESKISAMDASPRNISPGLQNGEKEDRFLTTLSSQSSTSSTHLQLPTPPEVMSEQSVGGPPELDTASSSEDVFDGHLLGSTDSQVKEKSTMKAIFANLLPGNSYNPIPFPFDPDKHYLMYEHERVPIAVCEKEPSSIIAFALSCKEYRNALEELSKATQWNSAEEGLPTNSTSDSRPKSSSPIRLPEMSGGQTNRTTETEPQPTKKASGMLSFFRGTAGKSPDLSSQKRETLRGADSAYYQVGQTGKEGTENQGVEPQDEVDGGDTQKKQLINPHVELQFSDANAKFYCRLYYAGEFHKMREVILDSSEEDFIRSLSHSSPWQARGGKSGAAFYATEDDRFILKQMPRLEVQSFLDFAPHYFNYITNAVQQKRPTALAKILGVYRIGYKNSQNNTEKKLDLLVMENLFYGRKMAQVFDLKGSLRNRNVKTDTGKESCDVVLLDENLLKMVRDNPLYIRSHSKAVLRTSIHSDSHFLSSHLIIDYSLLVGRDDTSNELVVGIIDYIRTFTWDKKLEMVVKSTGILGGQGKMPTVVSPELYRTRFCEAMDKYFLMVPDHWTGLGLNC
T1 sequence (Q9Y2I7 whole entry): as above

ADP-Glo kinase assay (%, 10 nM) (human GST-PIKFYVE) | IC50 (PIKFYVE) | Microsomal metabolic stability [1] | Compound
80.47% | ≤ 10 nM | low | Cc1cccc(/C=N/Nc2nc(N3CCOCC3)nc3c2ncn3-c2cccc(N(C)C)c2)c1 [Example 202, (E)-N,N-dimethyl-3-(6-(2-(3-methylbenzylidene)hydrazinyl)-2-morpholino-9H-purin-9-yl)aniline]
94.99% | ≤ 10 nM | medium | Cc1cccc(/C=N/Nc2nc(N3CCOCC3)nc3c(-c4cnn(C)c4)cccc23)c1 [Example 209, (E)-4-(8-(1-methyl-1H-pyrazol-4-yl)-4-(2-(3-methylbenzylidene)hydrazinyl)quinazolin-2-yl)morpholine]
88.34% | ≤ 10 nM | Low (Low <8.8,) | Cc1cccc(/C=N/Nc2nc(N3CCOCC3)nc3c(-c4ccncc4)cccc23)c1 [Example 212, (E)-4-(4-(2-(3-methylbenzylidene)hydrazinyl)-8-(pyridin-4-yl)quinazolin-2-yl)morpholine]
81.70% | ≤ 10 nM | Medium (Medium 8.8~48,) | Cc1cccc(/C=N/Nc2nc(N3CCOCC3)nc3c(-c4cccnc4)cccc23)c1 [Example 215, (E)-4-(4-(2-(3-methylbenzylidene)hydrazinyl)-8-(pyridin-3-yl)quinazolin-2-yl)morpholine]
